# Laboratory results reported in the supplement of paper PMC10307832.
# Legend:
# Assay in all cases: relative viability (nuclei count vs DMSO), 5 days (fraction); higher = more cells survive
# SK-LU-1 = system: SK-LU-1
# Summary of the method: (§1)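 Dosing by pin tool came one day after lung cancer cell lines were seeded in 1536-well plates, using either one drug or a fixed anchor-drug dose plus five library-drug doses (not always all listed) in √10 steps. After 5 days, nuclei were counted on 4× images. Relative viability is treated-well nuclei count divided by vehicle-well nuclei count, and values are medians of duplicate plates.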
# NCI-H23 = system: NCI-H23
# Summary of the method: as §1
# H3255 = system: H3255
# Summary of the method: as §1
# NCI-H3122 = system: NCI-H3122
# Summary of the method: as §1
# NCI-H2126 = system: NCI-H2126
# Summary of the method: as §1
# ChaGo-K-1 = system: ChaGo-K-1
# Summary of the method: as §1
# PC-3 [JPC-3] = system: PC-3 [JPC-3]
# Summary of the method: as §1
# HOP-62 = system: HOP-62
# Summary of the method: as §1
# HARA = system: HARA
# Summary of the method: as §1
# COR-L 105 = system: COR-L 105
# Summary of the method: as §1
# NCI-H2228 = system: NCI-H2228
# Summary of the method: as §1
# NCI-H661 = system: NCI-H661
# Summary of the method: as §1
# NCI-H596 = system: NCI-H596
# Summary of the method: as §1
# NCI-H2405 = system: NCI-H2405
# Summary of the method: as §1
# 201T = system: 201T
# Summary of the method: as §1
# NCI-H727 = system: NCI-H727
# Summary of the method: as §1
# HCC-827 = system: HCC-827
# Summary of the method: as §1
# LCLC-103H = system: LCLC-103H
# Summary of the method: as §1
# NCI-H650 = system: NCI-H650
# Summary of the method: as §1
# LOU-NH91 = system: LOU-NH91
# Summary of the method: as §1
# EKVX = system: EKVX
# Summary of the method: as §1
# NCI-H1975 = system: NCI-H1975
# Summary of the method: as §1
structure (smiles),measurement,setting,value
CCNC(=O)c1noc(-c2cc(C(C)C)c(O)cc2O)c1-c1ccc(CN2CCOCC2)cc1 [Luminespib] + CC(C)C[C@H](NC(=O)[C@H](Cc1ccccc1)NC(=O)c1cnccn1)B(O)O [Bortezomib] (partner 0.002 µM),relative viability,SK-LU-1; first compound 0.002 µM,1.19
same,relative viability,SK-LU-1; first compound 0.006325 µM,1.02
same,relative viability,SK-LU-1; first compound 0.02 µM,0.716
same,relative viability,SK-LU-1; first compound 0.06325 µM,0.199
same,relative viability,SK-LU-1; first compound 0.2 µM,0.203
same,relative viability,NCI-H23; first compound 0.002 µM,1.23
same,relative viability,NCI-H23; first compound 0.006325 µM,1.05
same,relative viability,NCI-H23; first compound 0.02 µM,0.733
same,relative viability,NCI-H23; first compound 0.06325 µM,0.119
same,relative viability,NCI-H23; first compound 0.2 µM,0.117
same,relative viability,H3255; first compound 0.002 µM,0.615
same,relative viability,H3255; first compound 0.006325 µM,0.466
same,relative viability,H3255; first compound 0.02 µM,0.472
same,relative viability,H3255; first compound 0.06325 µM,0.376
same,relative viability,H3255; first compound 0.2 µM,0.194
same,relative viability,NCI-H3122; first compound 0.002 µM,1.01
same,relative viability,NCI-H3122; first compound 0.006325 µM,1.01
same,relative viability,NCI-H3122; first compound 0.02 µM,1.05
same,relative viability,NCI-H3122; first compound 0.06325 µM,0.165
same,relative viability,NCI-H3122; first compound 0.2 µM,0.199
same,relative viability,NCI-H2126; first compound 0.002 µM,1.09
same,relative viability,NCI-H2126; first compound 0.006325 µM,1.03
same,relative viability,NCI-H2126; first compound 0.02 µM,0.79
same,relative viability,NCI-H2126; first compound 0.06325 µM,1.07
same,relative viability,NCI-H2126; first compound 0.2 µM,0.823
same,relative viability,ChaGo-K-1; first compound 0.002 µM,1.11
same,relative viability,ChaGo-K-1; first compound 0.02 µM,0.998
same,relative viability,ChaGo-K-1; first compound 0.06325 µM,0.528
same,relative viability,ChaGo-K-1; first compound 0.2 µM,0.294
same,relative viability,PC-3 [JPC-3]; first compound 0.002 µM,0.865
same,relative viability,PC-3 [JPC-3]; first compound 0.006325 µM,0.812
same,relative viability,PC-3 [JPC-3]; first compound 0.02 µM,0.977
same,relative viability,PC-3 [JPC-3]; first compound 0.06325 µM,0.942
same,relative viability,PC-3 [JPC-3]; first compound 0.2 µM,0.503
same,relative viability,HOP-62; first compound 0.002 µM,0.652
same,relative viability,HOP-62; first compound 0.006325 µM,0.924
same,relative viability,HOP-62; first compound 0.02 µM,0.852
same,relative viability,HOP-62; first compound 0.06325 µM,0.856
same,relative viability,HOP-62; first compound 0.2 µM,0.0907
same,relative viability,HARA; first compound 0.002 µM,1.12
same,relative viability,HARA; first compound 0.006325 µM,1
same,relative viability,HARA; first compound 0.02 µM,1.14
same,relative viability,HARA; first compound 0.06325 µM,0.474
same,relative viability,HARA; first compound 0.2 µM,0.0833
same,relative viability,COR-L 105; first compound 0.002 µM,0.992
same,relative viability,COR-L 105; first compound 0.006325 µM,0.75
same,relative viability,COR-L 105; first compound 0.02 µM,0.342
same,relative viability,COR-L 105; first compound 0.06325 µM,0.176
same,relative viability,COR-L 105; first compound 0.2 µM,0.206
same,relative viability,NCI-H2228; first compound 0.002 µM,0.985
same,relative viability,NCI-H2228; first compound 0.006325 µM,0.952
same,relative viability,NCI-H2228; first compound 0.02 µM,0.166
same,relative viability,NCI-H2228; first compound 0.06325 µM,0.196
same,relative viability,NCI-H2228; first compound 0.2 µM,0.184
same,relative viability,NCI-H661; first compound 0.002 µM,0.886
same,relative viability,NCI-H661; first compound 0.006325 µM,0.773
same,relative viability,NCI-H661; first compound 0.02 µM,0.685
same,relative viability,NCI-H661; first compound 0.06325 µM,0.527
same,relative viability,NCI-H661; first compound 0.2 µM,0.182
same,relative viability,NCI-H596; first compound 0.002 µM,1.03
same,relative viability,NCI-H596; first compound 0.006325 µM,0.915
same,relative viability,NCI-H596; first compound 0.06325 µM,1.07
same,relative viability,NCI-H596; first compound 0.2 µM,0.999
same,relative viability,NCI-H2405; first compound 0.002 µM,0.987
same,relative viability,NCI-H2405; first compound 0.006325 µM,0.533
same,relative viability,NCI-H2405; first compound 0.02 µM,0.835
same,relative viability,NCI-H2405; first compound 0.06325 µM,0.9
same,relative viability,NCI-H2405; first compound 0.2 µM,0.358
same,relative viability,201T; first compound 0.002 µM,1.11
same,relative viability,201T; first compound 0.006325 µM,1.07
same,relative viability,201T; first compound 0.02 µM,0.937
same,relative viability,201T; first compound 0.06325 µM,1.09
same,relative viability,201T; first compound 0.2 µM,1.09
same,relative viability,NCI-H727; first compound 0.002 µM,0.802
same,relative viability,NCI-H727; first compound 0.006325 µM,0.782
same,relative viability,NCI-H727; first compound 0.02 µM,0.379
same,relative viability,NCI-H727; first compound 0.06325 µM,0.23
same,relative viability,NCI-H727; first compound 0.2 µM,0.215
same,relative viability,HCC-827; first compound 0.002 µM,1.04
same,relative viability,HCC-827; first compound 0.006325 µM,0.999
same,relative viability,HCC-827; first compound 0.02 µM,1.11
same,relative viability,HCC-827; first compound 0.06325 µM,1.22
same,relative viability,HCC-827; first compound 0.2 µM,0.66
same,relative viability,LCLC-103H; first compound 0.002 µM,1.07
same,relative viability,LCLC-103H; first compound 0.006325 µM,1.01
same,relative viability,LCLC-103H; first compound 0.02 µM,0.931
same,relative viability,LCLC-103H; first compound 0.06325 µM,1
same,relative viability,LCLC-103H; first compound 0.2 µM,0.676
same,relative viability,NCI-H650; first compound 0.002 µM,0.737
same,relative viability,NCI-H650; first compound 0.006325 µM,0.716
same,relative viability,NCI-H650; first compound 0.02 µM,0.651
same,relative viability,NCI-H650; first compound 0.06325 µM,0.124
same,relative viability,NCI-H650; first compound 0.2 µM,0.103
same,relative viability,LOU-NH91; first compound 0.002 µM,0.513
same,relative viability,LOU-NH91; first compound 0.006325 µM,0.484
same,relative viability,LOU-NH91; first compound 0.02 µM,0.518
same,relative viability,LOU-NH91; first compound 0.06325 µM,0.451
same,relative viability,LOU-NH91; first compound 0.2 µM,0.389
same,relative viability,EKVX; first compound 0.002 µM,0.998
same,relative viability,EKVX; first compound 0.006325 µM,1.03
same,relative viability,EKVX; first compound 0.02 µM,0.852
same,relative viability,EKVX; first compound 0.06325 µM,0.824
same,relative viability,EKVX; first compound 0.2 µM,0.0943
same,relative viability,NCI-H1975; first compound 0.002 µM,0.444
same,relative viability,NCI-H1975; first compound 0.006325 µM,0.389
same,relative viability,NCI-H1975; first compound 0.02 µM,0.219
same,relative viability,NCI-H1975; first compound 0.06325 µM,0.149
same,relative viability,NCI-H1975; first compound 0.2 µM,0.119
